For one assay, the species on record is Mus musculus. The experiment in a line: Growth inhibition of mouse 26-L5 cells at 3 ug/ml by WST1 method. Format: functional. On the technique in general: Tetrazolium assays rely on reduction of a dye to a coloured formazan, in cell work by metabolically active cells.
Assay [1] can be described thus: Inhibition of invasion of mouse 26-L5 cells. Format: functional.

Activity calls are given as the source filed them. No cut-off for these calls is given here.

As to `Cc1c(O)c(CCC(C)C)c2c(c1O)C(=O)c1cccc(O)c1C2=O` [LUPINACIDIN A], the outcome in the assay listed under Mus musculus was Active. Also, the IC50 in assay [1] amounted to 210 nM.

Take `CCCCc1c(O)c(C)c(O)c2c1C(=O)c1c(O)cccc1C2=O` [LUPINACIDIN B]: the result in the assay filed under Mus musculus was inactive. The molecule also came in with a concentration for half-maximal inhibition (IC50) in assay [1] of 920 nM.

As a reminder, the IC50 is the concentration needed to halve the response being measured.
